Data taken from publication PMC7180456, “Multitarget Anticancer Agents Based on Histone Deacetylase and Protein Kinase CK2 Inhibitors” (Molecules, 2020).
Where two headings read alike, the source gives them in different places.

Columns and labels:
[1] = target: T1, human recombinant HDAC1 (Homo sapiens, UniProt Q13547); test: HDAC1 inhibition, fluorometric method (Enzo Fluorometric Drug Discovery Assay Kit); format: biochemical; conditions: read-out: Inhibitory activity IC50 on HDAC1
T1 construct: purchased Enzo Life Sciences, Inc
Experimental: The inhibitory activities of the synthesized compounds were determined against CK2 and HDAC1 and the IC50 values are collected in Table 1. The activity towards human recombinant HDAC1 was tested using a fluorometric method. CK2 inhibitory activity was determined by a radiometric method, using a short peptide ([…]) as a substrate.
15 µL of HDAC1 (0.4 µg/well) or HDAC6 (0.5 µg/well) were incubated at 37 °C for 30 minutes with 10 µL of inhibitor diluted in 5% DMSO and 25 µL of fluorogenic substrate (0.05 µL/well of 5 mM solution). Reactions were stopped with the developer and trichostatin A, diluted in buffer without BSA, and the plate was incubated at 30 °C for 45 min, followed by measuring the fluorescence (Ex. 360 nm, Em. 450 nm, Fluoroskan, Thermo Scientific).

[2] = tested on: Jurkat T-leukemia cells; test: Cell cycle analysis, PI staining, FACS; format: cell-based, human; conditions: 30 µM, 24 h
Experimental: To reveal potential mechanisms of cell death induction, selected CK2-HDAC inhibitors were tested in a PI staining assay. […] However, this effect was masked for high doses of DMAT-hydroxamate derivatives (30 µM) due to their strong proapoptotic activity, leading to appearance of > 80% cells in pre-G1 phase (apoptotic). Thus, lower concentrations of 11b–d (2 µM and 5 µM) had to be addressed in order to observe their inhibitory effect on cell cycling. […] As G1/S cell arrest is considered a typical feature of HDAC inhibitors, including SAHA [79], the observed phenomenon is yet another confirmation of HDAC targeting by these novel dual inhibitors in cell culture.
Cell cycle of the analyzed cells was assessed according to protocol described by Walker et al.. After drug treatment, 2 × 10^6 cells were collected, pelleted by spinning at 1,000 rpm, 4 °C for five minutes, resuspended in 1 mL of cold PBS and fixed by adding drop by drop 4 mL of −20 °C absolute ethanol. On the next day, fixed cells were centrifuged again and cell pellets were resuspended in 1 mL of PBS. Then 100 µL of 200 µg/mL DNase-free, RNase A (Invitrogen, USA) was added to cell suspension and incubated at 37 °C for 30 minutes. After this 100 µL of 1 mg/mL propidium iodide was added to samples, which were incubated at room temperature for 5–10 min and then analyzed on FACScan flow cytometer (Becton Dickinson, USA). Cell cycle analysis was carried out using the Cytomation Summit Software v3.1 (Cytomation Inc., USA).

[3] = tested on: HCT-116 colon carcinoma cells; test: Cytotoxicity, trypan blue exclusion assay, 24 h; conditions: Homo sapiens
Experimental: Walter Berger, Institute of Cancer Research, Vienna Medical University. Human embryonal kidney cells of HEK293 line were obtained from cell culture collection of R.E. Kavetsky Institute of Experimental Pathology, Oncology and Radiobiology, National Academy of Sciences of Ukraine (Kyiv, Ukraine).
Cells were seeded (5 × 10^5/mL for leukemia cells and 1 × 10^5/mL for carcinoma cells) into 24-well tissue culture plates (Greiner Bio-one, Frickenhausen, Germany) and were permitted to adhere and grow for 24 h before the experiment. Short-term (24 h) cytotoxic effect of antitumor drugs was studied under the Evolution 300 Trino microscope (Delta Optical, Nowe Osiny, Poland) after cell staining with trypan blue dye (0.1%).
Final concentration of DMSO in cell culture was 0.5% or less.
All experiments were performed in triplicate and repeated three times. Statistical analysis of data was conducted in GraphPad Prism 7.0 Software (GraphPad Software, Inc.) using Student’s t test. Statistical significance was set at P ≤ 0.05. Evaluation of LC50 values of each compound was done by built-in functions of GraphPad Prism (non-linear regression, curve fit, [Inhibitor] vs. normalized response - Variable slope).

[4] = tested on: Jurkat T-leukemia cells; test: Annexin V-PI double staining, FACS; format: cell-based, human; conditions: 10 µM and 30 µM, 24 h, comparison between compounds
Experimental: To confirm the pro-apoptotic activity of the studied inhibitors, Annexin V-PI double staining was addressed (Figure 7 down).
For cell death analyses, cells were stained with FITC-conjugated annexin V and propidium iodide (PI) using an apoptosis detection kit (BD Biosciences, San Jose, CA), according to the manufacturer’s instructions. In particular, 24 h after the addition of various concentration of CK2-HDAC inhibitors, Jurkat T-leukemia cells were centrifuged at 2,000 rpm, washed twice with 1x PBS, and incubated for 15 minutes in Annexin V binding buffer (BD Pharmingen, USA) containing 1/50 volume of FITC-conjugated Annexin V solution and PI (50 µg/mL). Then samples were diluted two times by appropriate volume of Annexin V binding buffer (BD Pharmingen, USA) and immediately measured on FL1/FL2 (FITC-PI) channels of FACScan flow cytometer (Becton Dickinson, USA). Analysis of the obtained results was carried out using the Cytomation Summit Software v3.1 (Cytomation Inc., USA).

[5] = tested on: HL-60, HL-60/adr and HL-60/vinc leukemia cells; test: DCFDA assay, hydrogen peroxide production; format: cell-based, human; conditions: 10 µM and 30 µM, 24 h
Text: To reveal potential mechanisms underlying this phenomenon, we studied the impact of the selected compounds on ROS production in both sensitive and MDR cell lines (Figure S8). […] As mitochondria are considered the main source of cellular superoxides, the next aim of our studies was to check whether CK2-HDAC inhibitors induce oxidative stress in tumor cells via depolarization of mitochondria, using the JC-1 assay. However, it was technically impossible to measure JC-1 accumulation on HL-60/adr and HL-60/vinc cells, because JC-1 is a substrate for these ABC-transporter proteins and is actively pumped out into extracellular medium.
Cellular ROS contents were measured by incubating control or drug-treated cells with fluorescent dyes dihydrodichlorofluorescein diacetate (DCFDA, detecting mainly H2O2) and dihydroethidium (DHE, O2^●−-specific) in concentrations of 10 μM at 37 °C for 30 minutes. After incubation with the dyes, cells were washed with PBS and immediately analyzed at FL1 (DCFDA) or FL2 channel (DHE) of FACSCalibur flow cytometer (BD Biosciences, San Jose, CA).

[6] = HCT-116, 24 h, read-out: LC50 Values of Compounds for Cell Line, HCT-116

T1 sequence (Q13547 whole entry): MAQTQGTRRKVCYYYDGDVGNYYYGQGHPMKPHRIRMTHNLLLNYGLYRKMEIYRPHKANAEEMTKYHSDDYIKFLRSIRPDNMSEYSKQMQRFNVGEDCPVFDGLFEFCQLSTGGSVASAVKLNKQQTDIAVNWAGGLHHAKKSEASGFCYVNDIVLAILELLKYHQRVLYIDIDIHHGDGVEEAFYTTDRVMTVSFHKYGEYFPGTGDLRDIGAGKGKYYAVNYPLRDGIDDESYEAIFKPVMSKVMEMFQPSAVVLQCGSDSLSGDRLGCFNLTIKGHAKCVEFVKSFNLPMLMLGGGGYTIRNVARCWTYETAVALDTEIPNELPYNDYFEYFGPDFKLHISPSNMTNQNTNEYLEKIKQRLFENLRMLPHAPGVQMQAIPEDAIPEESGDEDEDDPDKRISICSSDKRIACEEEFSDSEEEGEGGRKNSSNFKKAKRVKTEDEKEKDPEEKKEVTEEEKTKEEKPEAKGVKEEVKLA

Row | SMILES | IC50 [1] [µM] | cells in pre-G1 phase (apoptotic) [2] | CC50 [3, 6] [µM] | number of annexin V-positive (apoptotic) cells [4] | impact on hydrogen peroxide production [5] | CC50 ([3]; HCT-116, read-out: LC50 values of compounds for cell line, HCT-116) [µM]
1 | O=C(NO)c1ccc(Cn2nc3c(Br)c(Br)c(Br)c(Br)c3n2)cc1 [Compound 15a, N-Hydroxy-4-((tetrabromo-2H-benzo[d][1,2,3]triazol-2-yl)methyl)benzamide] | 8.5 | increased insignificantly | 8.67 ± 1.02 | – | – | –
2 | CN(C)c1nc2c(Br)c(Br)c(Br)c(Br)c2n1CCc1cn(CCC(=O)NO)nn1 [Compound 7c, N-Hydroxy-3-(4-(2-(4,5,6,7-tetrabromo-2-(dimethylamino)-1H-benzo[d]imidazol-1-yl)ethyl)-1H-1,2,3-triazol-1-yl)propanamide] | 13.3 | increased insignificantly | 16.9 ± 3.9 | significant decrease | hydrogen peroxide burst | 4.22
3 | CN(C)c1nc2c(Br)c(Br)c(Br)c(Br)c2n1Cc1ccc(C(=O)NO)cc1 [Compound 19, N-Hydroxy-4-((4,5,6,7-tetrabromo-2-(dimethylamino)-1H-benzo[d]imidazol-1-yl)methyl)benzamide] | 9.45 | increased insignificantly | 11.3 ± 1.01 | – | – | –
